# What was measured:
# [1] = target: B-subunit of cholera toxin (CTB) (Vibrio cholerae serotype O1, UniProt P01556)
# nar-3, a rotavirus toxin = experiment: Binding to rotavirus toxin nar-3; details: GD3 from Folch LP vs UP
# rotavirus particles = experiment: Binding to rotavirus particles
# Chain of B-subunit of cholera toxin (CTB) (P01556 22-124 limits assumed): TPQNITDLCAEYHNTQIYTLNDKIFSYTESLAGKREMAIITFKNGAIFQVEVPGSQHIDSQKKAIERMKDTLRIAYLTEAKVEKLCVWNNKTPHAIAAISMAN
Substance,binding of cholera toxin subunit B (CTB) [1],"binding to nar-3 (nar-3, a rotavirus toxin)",also measured
GD1a,not capable of binding the toxin,–,–
GD3 [GD3 isolated from the aqueous UP],–,did not bind to this toxin,–
GD3 [GD3 species isolated from the organic LP],–,bound to nar-3,–
GM1 [GM1 isolated from buffalo milk serum],binds to cholera toxin subunit B,–,–
GM1 [bovine-brain GM1 species],bind CTB,–,–
GM3 [GM3 species],–,–,binding of rotavirus particles (rotavirus particles): bind rotavirus particles

# From patent US20050107311A1, “Buffalo milk gangliosides” (priority 2001, published 2005)
